Measurements published in ChEMBL document CHEMBL4041487, “Drug Affinity Responsive Target Stability (DARTS) Identifies Laurifolioside as a New Clathrin Heavy Chain Modulator” (J Nat Prod, 2016).
Calls of active or inactive are those of the source. No cut-off for these calls is given here.

Tests used:
[1] = biological target: Clathrin heavy chain 1 (Homo sapiens) (UniProt Q00610); experiment: Inhibition of clathrin heavy chain 1 in human PC3 cells assessed as suppression of transferrin internalization at 30 uM pretreated for 15 mins followed by trasnferrin conjugate addition measured after 15 mins by laser scanning confocal microscopic analysis; assay type: cell-based
Sequence of Clathrin heavy chain 1 (Homo sapiens) (Q00610 whole entry): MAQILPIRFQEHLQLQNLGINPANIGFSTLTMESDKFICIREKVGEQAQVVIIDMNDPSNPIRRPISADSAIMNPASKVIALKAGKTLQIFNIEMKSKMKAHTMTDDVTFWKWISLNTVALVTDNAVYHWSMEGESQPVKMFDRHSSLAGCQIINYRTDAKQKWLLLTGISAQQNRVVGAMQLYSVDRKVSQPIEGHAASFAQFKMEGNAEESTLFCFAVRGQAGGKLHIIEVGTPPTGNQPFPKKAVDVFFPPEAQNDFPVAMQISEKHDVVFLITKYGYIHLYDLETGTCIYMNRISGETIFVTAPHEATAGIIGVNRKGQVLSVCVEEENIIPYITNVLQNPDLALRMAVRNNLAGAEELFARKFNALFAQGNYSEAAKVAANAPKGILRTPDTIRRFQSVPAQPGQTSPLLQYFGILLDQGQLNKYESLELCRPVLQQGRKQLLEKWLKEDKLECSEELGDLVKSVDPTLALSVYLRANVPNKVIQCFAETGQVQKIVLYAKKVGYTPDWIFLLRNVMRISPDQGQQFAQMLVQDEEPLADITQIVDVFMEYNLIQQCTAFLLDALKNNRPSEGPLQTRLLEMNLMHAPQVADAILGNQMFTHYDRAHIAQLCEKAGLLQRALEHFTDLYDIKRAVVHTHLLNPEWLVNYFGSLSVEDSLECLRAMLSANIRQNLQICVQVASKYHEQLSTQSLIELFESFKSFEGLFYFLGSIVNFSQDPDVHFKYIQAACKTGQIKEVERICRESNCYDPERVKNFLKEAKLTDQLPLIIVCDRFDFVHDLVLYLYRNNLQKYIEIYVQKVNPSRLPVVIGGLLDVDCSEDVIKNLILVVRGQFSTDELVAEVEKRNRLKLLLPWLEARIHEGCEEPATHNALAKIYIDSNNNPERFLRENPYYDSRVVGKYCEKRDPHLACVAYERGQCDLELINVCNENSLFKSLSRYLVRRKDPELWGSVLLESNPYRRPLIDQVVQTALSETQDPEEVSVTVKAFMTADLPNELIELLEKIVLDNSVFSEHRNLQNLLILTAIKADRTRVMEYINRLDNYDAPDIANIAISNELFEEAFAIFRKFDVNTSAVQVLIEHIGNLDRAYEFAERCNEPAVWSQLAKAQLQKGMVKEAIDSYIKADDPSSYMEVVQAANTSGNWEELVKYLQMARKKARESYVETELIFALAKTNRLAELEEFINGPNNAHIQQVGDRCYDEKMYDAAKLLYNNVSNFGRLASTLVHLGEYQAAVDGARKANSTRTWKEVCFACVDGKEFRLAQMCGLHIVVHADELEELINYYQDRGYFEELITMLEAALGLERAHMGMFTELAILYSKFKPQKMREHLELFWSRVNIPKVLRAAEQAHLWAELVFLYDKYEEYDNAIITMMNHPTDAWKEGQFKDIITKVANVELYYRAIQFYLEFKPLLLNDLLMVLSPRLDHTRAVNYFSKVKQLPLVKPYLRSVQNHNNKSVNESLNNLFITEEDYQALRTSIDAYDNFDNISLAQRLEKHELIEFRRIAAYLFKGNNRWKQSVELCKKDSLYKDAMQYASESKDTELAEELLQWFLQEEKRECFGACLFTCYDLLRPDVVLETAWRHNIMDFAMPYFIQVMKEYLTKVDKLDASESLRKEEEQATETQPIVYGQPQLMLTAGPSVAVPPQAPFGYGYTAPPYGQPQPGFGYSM

PC-3 = experiment: Antiproliferative activity against human PC3 cells measured after 24 hrs by MTT assay; assay type: functional, cell-based; settings: PC-3, 24 h
MCF7 = experiment: Antiproliferative activity against human MCF7 cells measured after 24 hrs by MTT assay; assay type: functional, cell-based; settings: MCF7, 24 h
[2] = biological target: Clathrin heavy chain 1 (Homo sapiens) (UniProt Q00610); experiment: Binding affinity to clathrin heavy chain 1 in human MCF7 cells at 20 to 40 uM measured after 2 hrs by DARTS assay; assay type: cell-based
[3] = biological target: Clathrin heavy chain 1 (Homo sapiens) (UniProt Q00610); experiment: Modulation of clathrin heavy chain 1 in human PC3 cells assessed as effect on transferrin endocytosis at 5 to 25 uM pretreated for 15 mins followed by trasnferrin conjugate addition measured after 15 mins by laser scanning confocal microscopic analysis; assay type: cell-based
[4] = biological target: Clathrin heavy chain 1 (Homo sapiens) (UniProt Q00610); experiment: Binding affinity to clathrin heavy chain 1 in human PC3 cells at 20 to 40 uM measured after 2 hrs by DARTS assay; assay type: cell-based

| inhibition [1] | IC50 (PC-3) | IC50 (MCF7) | Activity [2] | Activity [3] | Activity [4] | SMILES |
| --- | --- | --- | --- | --- | --- | --- |
| Active |  |  |  |  |  | O=C1N=C(NS(=O)(=O)c2cccc3ccccc23)S/C1=C/c1ccc(Br)cc1 |
|  | 25 µM | 32 µM | Active | Active | Active | C/C1=C/C2=C(C(=O)[C@H](C)C2)C(=O)[C@@H](C)C[C@@H]2[C@H](CC1)[C@@]2(C)CO[C@@H]1O[C@H](CO)[C@@H](O)[C@H](O)[C@H]1O |
